Measurements: patent publication US20190282566A1, “USE OF FLIBANSERIN IN THE TREATMENT OF OBESITY” (Sprout Pharmaceuticals, Inc., priority 2005, published 2019)

Experiments:
5-HT2-receptor family = conditions: cited from earlier work
[1] = 13-week dietary admixture study in rats, body weight; format: in vivo
Procedure: To test the efficacy of Flibanserin in the treatment of obesity groups of the rats per sex per group (gang-housed) received Flibnanserin at dosages of 0 (control), 100, 200, and 600 mg/kg/day via dietary admixture. The test compound was mixed with the food to obtain a 3% premix. This premix was prepared in week −1 and drug week 7 and was used to prepare the substance/food mixtures for all individual groups. The substance/food concentration was calculated using the mean daily food intake from the study week before. The substance/food mixture was made weekly for every dose group and stored under darkness in the animal room. The concentration, homogeneity and stability of the test substance in the food was checked during study week 2 with reanalysis one and four weeks later. One further check of concentration and homogeneity was performed in week 13. The body weight of each animal was determined and recorded once a week including the pretest acclimation period, in the morning on the same day of the week.
The following tables presents the results of the above described experiments as absolute body weights at start of treatment (week −1) as well as in drug week 6 and 13, including percentage change compared to controls. (in parentheses).

5-HT1A receptor = target: T1, 5-HT1A receptor (Homo sapiens, UniProt P08908); conditions: cited from earlier work
T1 sequence (P08908 1-422): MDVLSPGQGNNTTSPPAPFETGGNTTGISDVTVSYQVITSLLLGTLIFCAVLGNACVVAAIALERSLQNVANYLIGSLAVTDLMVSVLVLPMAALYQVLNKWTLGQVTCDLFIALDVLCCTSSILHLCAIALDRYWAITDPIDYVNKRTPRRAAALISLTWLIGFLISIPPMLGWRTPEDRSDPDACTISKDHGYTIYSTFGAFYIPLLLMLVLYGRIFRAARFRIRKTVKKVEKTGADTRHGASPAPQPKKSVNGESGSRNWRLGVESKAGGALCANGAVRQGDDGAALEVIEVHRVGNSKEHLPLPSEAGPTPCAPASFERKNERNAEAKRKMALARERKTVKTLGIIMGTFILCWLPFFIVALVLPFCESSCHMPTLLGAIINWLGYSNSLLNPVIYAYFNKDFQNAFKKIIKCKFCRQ

[2] = female rats, 100 mg/kg/day via diet, drug week 6
[3] = female rats, 100 mg/kg/day via diet, drug week 13
[4] = female rats, 100 mg/kg/day via diet, drug week −1 (start of treatment)
[5] = female rats, 200 mg/kg/day via diet, drug week 6
[6] = female rats, 200 mg/kg/day via diet, drug week 13
[7] = female rats, 200 mg/kg/day via diet, drug week −1 (start of treatment)
[8] = female rats, 600 mg/kg/day via diet, drug week 6
[9] = female rats, 600 mg/kg/day via diet, drug week 13
[10] = female rats, 600 mg/kg/day via diet, drug week −1 (start of treatment)
[11] = male rats, 100 mg/kg/day via diet, drug week 6
[12] = male rats, 100 mg/kg/day via diet, drug week 13
[13] = male rats, 100 mg/kg/day via diet, drug week −1 (start of treatment)
[14] = male rats, 200 mg/kg/day via diet, drug week 6
[15] = male rats, 200 mg/kg/day via diet, drug week 13
[16] = male rats, 200 mg/kg/day via diet, drug week −1 (start of treatment)
[17] = male rats, 600 mg/kg/day via diet, drug week 6
[18] = male rats, 600 mg/kg/day via diet, drug week 13
[19] = male rats, 600 mg/kg/day via diet, drug week −1 (start of treatment)

O=c1[nH]c2ccccc2n1CCN1CCN(c2cccc(C(F)(F)F)c2)CC1 [BIMT 17 BS, 1-[2-(4-(3-trifluoromethyl-phenyl)piperazin-1-yl)ethyl]-2,3-dihydro-1H-benzimidazol-2-one]
affinity for the 5-HT2-receptor family (5-HT2-receptor family): shows affinity
Mean absolute body weight [1, 2]: 213.6 grams
percent change to controls (body weight) [1, 2]: −6.8%
Mean absolute body weight [1, 3]: 234.5 grams
percent change to controls (body weight) [1, 3]: −10.3%
Mean absolute body weight [1, 4]: 141.3 grams
percent change to controls (body weight) [1, 4]: +0.1%
Mean absolute body weight [1, 5]: 209.7 grams
percent change to controls (body weight) [1, 5]: −8.5%
Mean absolute body weight [1, 6]: 234.9 grams
percent change to controls (body weight) [1, 6]: −10.2%
Mean absolute body weight [1, 7]: 142.2 grams
percent change to controls (body weight) [1, 7]: +0.7%
Mean absolute body weight [1, 8]: 196.0 grams
percent change to controls (body weight) [1, 8]: −14.4%
Mean absolute body weight [1, 9]: 225.8 grams
percent change to controls (body weight) [1, 9]: −13.7%
Mean absolute body weight [1, 10]: 140.7 grams
percent change to controls (body weight) [1, 10]: −0.4%
difference compared to controls at study end (body weight decrease) ([1]; females, 100 mg/kg/day): 10%
difference compared to controls at study end (body weight decrease) ([1]; females, 200 mg/kg/day): 10%
difference compared to controls at study end (body weight decrease) ([1]; females, 600 mg/kg/day): 14%
Mean absolute body weight [1, 11]: 340.9 grams
percent change to controls (body weight) [1, 11]: −7.4%
Mean absolute body weight [1, 12]: 397.4 grams
percent change to controls (body weight) [1, 12]: −9.8%
Mean absolute body weight [1, 13]: 188.1 grams
percent change to controls (body weight) [1, 13]: −1.7%
Mean absolute body weight [1, 14]: 340.4 grams
percent change to controls (body weight) [1, 14]: −7.5%
Mean absolute body weight [1, 15]: 400.9 grams
percent change to controls (body weight) [1, 15]: −9.0%
Mean absolute body weight [1, 16]: 189.3 grams
percent change to controls (body weight) [1, 16]: −1.0%
Mean absolute body weight [1, 17]: 284.8 grams
percent change to controls (body weight) [1, 17]: −22.7%
Mean absolute body weight [1, 18]: 333.2 grams
percent change to controls (body weight) [1, 18]: −24.3%
Mean absolute body weight [1, 19]: 186.8 grams
percent change to controls (body weight) [1, 19]: −2.4%
difference compared to controls at study end (body weight decrease) ([1]; males, 100 mg/kg/day): 10%
difference compared to controls at study end (body weight decrease) ([1]; males, 200 mg/kg/day): 9%
difference compared to controls at study end (body weight decrease) ([1]; males, 600 mg/kg/day): 24%
body weight gain of males and females ([1]; rats, 100, 200 and 600 mg/kg/day via diet, in almost all drug weeks, versus controls): significantly decreased
affinity for the 5-HT1A receptor (5-HT1A receptor): shows affinity
